From patent US6451814B1, “Heterocyclic β-3 adrenergic receptor agonists” (Wyeth, priority 2000, dated 2002)
Where a name gives a salt, the structure may show the parent alone.

System: not given
Test: not given
Details: not given
For `O=C(c1n[nH]c2ccccc12)N1CCC(Nc2ccc(CCNC[C@H](O)COc3ccc(O)cc3)cc2)CC1` (as salt: salt) [Example 102, [4-(4-{2-[(2S)-2-Hydroxy-3-(4-hydroxy-phenoxy)-propylamino]-ethyl}-phenylamino)-piperidin-1-yl]-(1H-indazol-3-yl)-methanone], the melting point was 111 to 113 °C. `CCCCCCCCNC(=O)N1CCC(Nc2ccc(CCNC[C@H](O)COc3ccc(F)cc3)cc2)CC1` [Example 3, 4-(4-{2-[(2S)-3-(4-Fluoro-phenoxy)-2-hydroxy-propylamino]-ethyl}-phenylamino)-piperidine-1-carboxylic Acid Octylamide] gave a melting point of 58 to 64 °C. With `O=C(NCc1ccc(F)cc1)N1CCC(Nc2ccc(CCNC[C@H](O)COc3ccc(O)cc3)cc2)CC1` (as salt: salt) [Example 1, 4-(4-{2-[(2S)-2-Hydroxy-3-(4-hydroxy-phenoxy)-propylamino]-ethyl}-phenylamino)-piperidine-1-carboxylic Acid 4-fluoro-benzylamide] the melting point was 89 to 91 °C. Molecule `O=C(NCCCC1CCCC1)N1CCC(Nc2ccc(CCNC[C@H](O)COc3ccc(O)cc3)cc2)CC1` (as salt: salt) [Example 12, 1-4-(4-{2-[(2S)-2-Hydroxy-3-(4-hydroxy-phenoxy)-propylamino]-ethyl}-phenylamino)-piperidine-1-carboxylic Acid (3-cyclopentyl-propyl)-amide] has a melting point of 71 to 74 °C. With `COc1ccc2[nH]c(C(=O)N3CCC(Nc4ccc(CCNCC(O)COc5ccc(O)cc5)cc4)CC3)cc2c1` (stereo not drawn) (as salt: salt) [Example 94, [4-(4-{2-[2-Hydroxy-3-(4-hydroxy-phenoxy)-propylamino]-ethyl}-phenylamino)-piperidin-1-yl]-(5-methoxy-1H-indol-2-yl)-methanone] the melting point was 101 to 103 °C. Molecule `CCCCCCCCNC(=O)N1CCC(N(C(C)=O)c2ccc(CCNC[C@H](O)COc3ccc(O)cc3)cc2)CC1` (as salt: salt) [Example 8, 4-[Acetyl-(4-{2-[(2S)-2-hydroxy-3-(4-hydroxy-phenoxy)-propylamino]-ethyl}-phenyl)-amino]-piperidine-1-carboxylic Acid Octylamide] has a melting point of 71 to 74 °C. Molecule `Cc1ccsc1C(=O)N1CCC(Nc2ccc(CCNC[C@H](O)COc3ccc(O)cc3)cc2)CC1` (as salt: salt) [Example 100, [4-(4-{2-[(2S)-2-Hydroxy-3-(4-hydroxy-phenoxy)-propylamino]-ethyl}-phenylamino)-piperidin-1-yl]-(3-methyl-thiophen-2-yl)-methanone] has a melting point of 88 to 90 °C. `CCCCCCCCNC(=O)N1CCC(Nc2ccc(CCNC[C@H](O)COc3ccc(O)c(NS(C)(=O)=O)c3)cc2)CC1` (as salt: salt) [Example 66, 4-(4-{2-[(2S)-2-Hydroxy-3-(4-hydroxy-3-methanesulfonylamino-phenoxy)-propylamino]-ethyl}-phenylamino)-piperidine-1-carboxylic Acidoctylamide] showed a melting point of 115 to 117 °C. Molecule `CCCCCCNC(=O)Nc1ccc(S(=O)(=O)N2CCC(Nc3ccc(CCNC[C@H](O)COc4ccc(O)cc4)cc3)CC2)cc1` (as salt: hydrochloride) [Example 108, 1-Hexyl-3-{4-[4-(4-{2-[(2S)-2-hydroxy-3-(4-hydroxy-phenoxy)-propylamino]-ethyl}-phenylamino)-piperidine-1-sulfonyl]-phenyl}-urea] has a melting point of 165 to 168 °C. With `CC(C)NC(=O)N1CCC(Nc2ccc(CCNC[C@H](O)COc3ccc(O)cc3)cc2)CC1` (as salt: salt) [Example 11] the melting point was 89 to 96 °C. Work on `CCCCCCCCNC(=O)N1CCC(Nc2ccc(CCNC[C@H](O)COc3ccc(N)nc3)cc2)CC1` (as salt: salt) [Example 5, 4-(4-{2-[(2S)-3-(6-Amino-pyridin-3-yloxy)-2-hydroxy-propylamino]-ethyl}-phenylamino)-piperidine-1-carboxylic Acid Octylamide] yielded a melting point of 134 to 138 °C. With `CCCCCCNC(=O)Nc1ccc(C(=O)N2CCC(Nc3ccc(CCNC[C@H](O)COc4ccc(O)cc4)cc3)CC2)cc1` [Example 93, 1-Hexyl-3-{4-[4-(4-{2-[(2S)-2-hydroxy-3-(4-hydroxy-phenoxy)-propylamino]-ethyl}-phenylamino)-piperidine-1-carbonyl]-phenyl}-urea] the melting point was 108 to 111 °C. `CCCCCCCCNC(=O)N1CCC(Nc2ccc(CCNC[C@H](O)COc3ccc(NS(C)(=O)=O)cc3)cc2)CC1` [Example 22, 4-(4-{2-[(2S)-2-Hydroxy-3-(4-methanesulfonylamino-phenoxy)-propylamino]-ethyl}-phenylamino)-piperidine-1-carboxylic Acid Octylamide] showed a melting point of 89 to 95 °C. `O=C(NC1CCCCC1)N1CCC(Nc2ccc(CCNC[C@H](O)COc3ccc(O)cc3)cc2)CC1` (as salt: salt) [Example 2] showed a melting point of 77 to 86 °C. Work on `CCCCCCCCNC(=O)N1CCC(C(=O)N2CCC(Nc3ccc(CCNC[C@H](O)COc4ccc(O)cc4)cc3)CC2)CC1` (as salt: salt) [Example 92, 4-[4-(4-{2-[(2S)-2-Hydroxy-3-(4-hydroxy-phenoxy)-propylamino]-ethyl}-phenylamino)-piperidine-1-carbonyl]-piperidine-1-carboxylic Acidoctylamide] yielded a melting point of 88 to 91 °C. `CS(=O)(=O)Nc1cc([C@@H](O)CNCCc2ccc(NC3CCN(c4nc(-c5ccccc5)cs4)CC3)cc2)ccc1O` (as salt: salt) [Example 118, (R)-N-{2-Hydroxy-5-[1-hydroxy-2-(2-{4-[1-(4-phenyl-thiazol-2-yl)-piperidin-4-ylamino]-phenyl}-ethylamino)-ethyl]-phenyl}-methanesulfonamide] gave a melting point of 142 to 145 °C. In the case of `COc1cccc(CCNC(=O)N2CCC(Nc3ccc(CCNC[C@H](O)COc4ccc(O)cc4)cc3)CC2)c1` (as salt: salt) [Example 6, 4-(4-{2-[(2S)-2-Hydroxy-3-(4-hydroxy-phenoxy)-propylamino]-ethyl}-phenylamino)-piperidine-1-carboxylic Acid [2-(3-methoxy-phenyl)-ethyl]-amide], the melting point is reported as 103 to 108 °C. In the case of `CS(=O)(=O)Nc1cc([C@@H](O)CNCCc2ccc(NC3CCN(C(=O)c4ccc(C(=O)O)cc4)CC3)cc2)ccc1O` (as salt: salt) [Example 105, 4-[4-(4-{2-[(2R)-2-Hydroxy-2-(4-hydroxy-3-methanesulfonylamino-phenyl)-ethylamino]-ethyl}-phenylamino)-piperidine-1-carbonyl]-benzoic Acid], the melting point is reported as over 200 °C.

Target: T1, human β3-adrenergic receptor (Homo sapiens, UniProt P13945)
T1 construct: Full length β3 AR clones (402 amino acids) containing the last 6 amino acids of hβ3—AR are prepared; expressed in transfected cells; host or cells: CHO cells
T1 sequence (P13945 whole entry): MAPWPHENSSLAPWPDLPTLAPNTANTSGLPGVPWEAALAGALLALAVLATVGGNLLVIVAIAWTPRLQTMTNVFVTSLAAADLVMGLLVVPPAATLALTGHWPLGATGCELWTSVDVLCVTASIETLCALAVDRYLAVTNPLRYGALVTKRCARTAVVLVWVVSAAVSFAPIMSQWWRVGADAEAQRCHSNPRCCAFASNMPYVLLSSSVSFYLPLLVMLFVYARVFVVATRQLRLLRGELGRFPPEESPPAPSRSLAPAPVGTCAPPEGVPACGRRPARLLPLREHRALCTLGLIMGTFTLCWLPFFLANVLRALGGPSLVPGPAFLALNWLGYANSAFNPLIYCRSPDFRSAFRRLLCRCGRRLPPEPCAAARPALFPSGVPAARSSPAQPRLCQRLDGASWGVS
Test: cAMP response (SPA kit) in CHO cells transfected with human β3 adrenergic receptor
Type: cell-based
Details: CHO cells expressing human β3-AR; 10^-9 M to 10^-5 M; 30 min at 37° C.; cAMP by SPA; read-out: EC50(β3)
Work on “1H-Indole-2-carboxylic Acid (4-{2-[(2S)-2-hydroxy-3-(4-hydroxy-phenoxy)-propylamino]-ethyl}-phenyl)-amide [Example 91]” yielded an EC50 of 51 nM.

Same assay, conditions: maximal response of compound compared to maximal response of isoproterenol at 10^-5 M; CHO cells, human β3-AR
With `CCOC(=O)C1CCCN(C(=O)N2CCC(Nc3ccc(CCNC[C@H](O)c4ccc(O)c(NS(C)(=O)=O)c4)cc3)CC2)C1` (stereo partly drawn) [Example 78, 1-[[4-[[4-[2-[[(2R)-2-Hydroxy-2-[4-hydroxy-3-[(methylsulfonyl)amino]phenyl]ethyl]amino]ethyl]phenyl]amino]-1-piperidinyl]carbonyl]-3-piperidine Carboxylic Acid, Ethyl Ester] the “IA(β3)” value was 1. For “1H-Indole-2-carboxylic Acid (4-{2-[(2S)-2-hydroxy-3-(4-hydroxy-phenoxy)-propylamino]-ethyl}-phenyl)-amide [Example 91]”, the “IA(β3)” value was 1.
